Measured values published in ChEMBL document CHEMBL4418497, “Compositions and methods relating to inhibiting serine hyrdoxymethyltransferase 2 activity” (2016).

Molecular target: T1, Serine hydroxymethyltransferase, mitochondrial (Homo sapiens, UniProt P34897)
T1 sequence (P34897 whole entry): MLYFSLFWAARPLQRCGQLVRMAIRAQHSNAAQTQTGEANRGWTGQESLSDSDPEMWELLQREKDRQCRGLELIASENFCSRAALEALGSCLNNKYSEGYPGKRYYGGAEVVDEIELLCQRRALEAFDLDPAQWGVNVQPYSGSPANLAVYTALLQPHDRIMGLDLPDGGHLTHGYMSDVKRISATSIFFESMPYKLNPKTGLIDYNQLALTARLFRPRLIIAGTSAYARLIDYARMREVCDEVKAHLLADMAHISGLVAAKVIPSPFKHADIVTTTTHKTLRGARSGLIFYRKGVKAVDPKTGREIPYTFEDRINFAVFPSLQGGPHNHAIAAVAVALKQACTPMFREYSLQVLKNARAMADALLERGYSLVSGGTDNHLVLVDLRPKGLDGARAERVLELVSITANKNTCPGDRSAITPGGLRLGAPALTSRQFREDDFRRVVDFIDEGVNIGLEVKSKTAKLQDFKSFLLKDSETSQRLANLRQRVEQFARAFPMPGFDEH
Experiment: Inhibition of His-tagged human recombinant SHMT2 expressed in Escherichia coli BLR(DE3) assessed as reduction in NADPH level using L-serine, THF and NADP+ incubated for 5 mins by SHMT2-MTHFD coupled reaction based fluorescence assay
Conditions: read-out: IC50

| IC50 [µM] | SMILES |
| --- | --- |
| 1.02 | C=CCOc1ccc(C2CC(=O)Nc3c(-c4ccccc4OC)csc32)cc1 (stereo unspecified) |
| 4.57 | CC(C)Cn1cc(NC(=O)N2CCN(C(=O)c3ccco3)CC2)c2ccccc2c1=O |
| 12.9 | COc1cc(OC)c(NC(=O)N2CCn3cccc3C2C)cc1Cl (stereo unspecified) |
| 14.1 | CCOC(=O)c1nc(Nc2cc(OC)ccc2OC)c2ccccc2n1 |
| 2.51 | CC(C)CCNC(=O)CSc1nc2ncccc2o1 |
| 4.07 | CC1=NC2c3c(oc(C(=O)NCC4CCCO4)c3C)CCC2S1 (stereo unspecified) |
| 2.51 | CNc1nc2[nH]c(=O)cc(O)c2s1 |
| 5.01 | CCOc1ccc(NS(=O)(=O)c2ccc3c4c2CC(=O)N4CC(C)S3)cc1 (stereo unspecified) |
| 5.13 | COCCN1CCn2c(nc3cc(NC(=O)NC4CCCCC4)ccc32)C1 |
| 2.75 | O=C(Nc1ccc2c(c1)OCCO2)N1CCSc2ncccc21 |
| 2.45 | COc1ccc(Nc2nc(Nc3ccc(OC)c(Cl)c3)c3cnn(C)c3n2)c(OC)c1 |
| 2.14 | CCc1ccc(NS(=O)(=O)c2ccc3c4c2CC(=O)N4CC(C)S3)cc1 (stereo unspecified) |
| 13.8 | CNc1nc(Nc2ccc(OC)cc2)c2cnn(C)c2n1 |
| 7.08 | COc1ccc(NC(=O)N2CCSc3ccccc32)cc1OC |
| 3.47 | Cc1csc(NC(=O)Nc2cn(CC(C)C)c(=O)c3ccccc23)n1 |
| 3.31 | COc1ccc(Nc2nc(Nc3ccccc3)c3cnn(C)c3n2)c(OC)c1 |
| 2.57 | COc1ccc(OC)c(CNC(=O)Nc2cn(C)c(=O)c3ccccc23)c1 |
| 2.57 | COc1cc(NC(=O)N2CCSc3ncccc32)cc(OC)c1 |
| 5.89 | CC(C)Cn1cc(NC(=O)N2CCN(c3cccc(Cl)c3)CC2)c2ccccc2c1=O |
| 2.45 | CC(C)Cn1cc(NC(=O)NCCN2CCN(C)CC2)c2ccccc2c1=O |
| 2.04 | Cn1cnc2cc(NCc3ccco3)ccc21 |
| 12.3 | CCc1nnc2c3ccccc3nc(Nc3ccc(OC)c(OC)c3)n12 |

| IC50 [µM] | SMILES |
| --- | --- |
| 1.74 | CC(C)Cn1cc(NC(=O)NC2CCCCC2)c2ccccc2c1=O |
| 2.51 | Cc1nc(SCC(=O)Nc2cccc3nsnc23)oc1C |
| 11.8 | Cc1ccc2oc(SCC(=O)Nc3ccc(S(=O)(=O)N4CCCC4)cc3)nc2n1 |
| 1.66 | CC(C)Cn1cc(NC(=O)NCCc2ccsc2)c2ccccc2c1=O |
| 3.63 | COc1cccc(NS(=O)(=O)c2ccc3c4c2CC(=O)N4CC(C)S3)c1 (stereo unspecified) |
| 2.95 | COc1ccc(N2C(=O)c3cccnc3C2Nc2ccc(OC)c(OC)c2)cc1 (stereo unspecified) |
| 3.09 | O=C(Nc1ccc2c(c1)OCCO2)N1Cc2ccccc2Oc2ncccc21 |
| 10 | COc1ccc(OC)c(Nc2c(-c3cc(C)c(C)cc3C)c(=O)c2=O)c1 |
| 2.14 | CCCNC(=O)Nc1cn(CC(C)C)c(=O)c2ccccc12 |
| 3.39 | COc1ccc(NCc2cccn2-c2nnc(N3CCCCC3)s2)cc1OC |
| 2.34 | COCCCNc1nc(Nc2ccc(OC)cc2)c2cnn(C)c2n1 |
| 2.51 | CCC(Sc1nc2ncccc2o1)C(=O)Nc1c(C)cc(C)cc1C (stereo unspecified) |
| 10.5 | CCOc1ccc(C2CC(=O)N3CN(c4ccc(OCC)cc4)CSC3=C2C#N)cc1 (stereo unspecified) |
| 4.68 | Cn1cc(NC(=O)NCC2COc3ccccc3O2)c2ccccc2c1=O (stereo unspecified) |
| 2.69 | Cc1c(C(=O)N2CCOCC2)oc2c1-c1nn(CC(=O)NC3CCCC(C)C3C)cc1CC2 (stereo unspecified) |
| 3.02 | CC(C)Cn1cc(NC(=O)N2CCCc3ccccc32)c2ccccc2c1=O |
| 4.37 | COc1cccc(C2CC(=O)N3CN(c4ccc(OC)cc4OC)CSC3=C2C#N)c1 (stereo unspecified) |
| 2.34 | O=C1CN(C(=O)COc2cccc3ccccc23)c2ccccc2N1 |
| 1.74 | CC(C)Cn1cc(NC(=O)NCCN2CCCCC2)c2ccccc2c1=O |
| 3.72 | CC(=O)Oc1cc2c(C(=O)NCC3CCCO3)c(C)oc2c2ccccc12 (stereo unspecified) |
| 8.51 | Cn1c(=O)oc2cc(S(=O)(=O)N3CCC4(CC3)Nc3cc(F)ccc3-n3cccc34)ccc21 |
| 2.69 | COc1ccc(NC(=O)N2CCn3c(C)ccc3C2C(C)C)cc1OC (stereo unspecified) |

| IC50 [µM] | SMILES |
| --- | --- |
| 9.55 | Cc1cc2nc(CSc3nc4ccc(NC(=O)CCC5CCCC5)cc4s3)cc(=O)n2o1 |
| 3.8 | CN1CCN(CCCNC(=O)c2ccc(N3CCSc4ncccc43)s2)CC1 |
| 5.13 | CCCN1CCN(CCCNC(=O)c2oc3c(c2C)-c2[nH]ncc2CC3)CC1 |
| 4.27 | CC(C)Cn1cc(NC(=O)Nc2cc(F)ccc2F)c2ccccc2c1=O |
| 4.57 | COc1cc(OC)c(NC(=O)NCCc2csc(C)c2C)cc1Cl |
| 1.35 | COc1ccc(Nc2ncnc3sc(C(=O)O)cc23)c(OC)c1 |
| 4.57 | CCCCN1CCS(=O)(=O)c2c(Cl)c(N3CCOCC3)nc(Oc3ccc(F)cc3)c21 |
| 6.92 | COc1ccc(Cl)cc1N(C)C(=O)Nc1cn(C)c(=O)c2ccccc12 |
| 12.6 | COc1ccc(NC2c3ncccc3C(=O)N2Cc2ccco2)cc1OC (stereo unspecified) |
| 2.19 | Cc1cc(C)n(-c2nnc(Nc3ccc4c(c3)OCCO4)c3ccccc23)n1 |
| 7.59 | O=C(Nc1ccc(Br)cc1F)N1CCSc2ncccc21 |
| 4.79 | Cn1cc(NC(=O)NCc2ccccn2)c2ccccc2c1=O |
| 1.51 | Cc1ccc(-c2cc(Nc3cccc4cccnc34)nc(C)n2)cc1 |
| 2.75 | Fc1ccc(NCc2ccc3nccnc3c2)c(F)c1 |
| 15.5 | COc1ccc(OC)c(NC2c3ncccc3C(=O)N2c2ccccc2)c1 (stereo unspecified) |
| 3.16 | Cc1c(C(=O)N2CCOCC2)oc2c1-c1nn(CC(=O)NC3CCCCC3C)cc1CC2 (stereo unspecified) |
| 3.72 | CCN(CC)S(=O)(=O)c1ccc(NC(=O)Nc2cn(CC(C)C)c(=O)c3ccccc23)cc1 |
| 4.37 | CCOc1ccc2nc(NC(=O)CSc3nc4ncccc4o3)sc2c1 |
| 4.79 | CN(C)c1ccc(NC(=O)C2CC=CCC2C(=O)O)cc1 (stereo unspecified) |
| 3.31 | CCOC(=O)Cc1csc(NC(=O)Nc2cn(CC(C)C)c(=O)c3ccccc23)n1 |
| 5.75 | Cn1cc(NC(=O)NCc2cccnc2)c2ccccc2c1=O |
| 1.35 | CCOC(=O)c1c(C)oc2c1c1c(c3ccccc32)OCN(CCCC(=O)O)C1 |

| IC50 [µM] | SMILES |
| --- | --- |
| 0.71 | CCOC(=O)CSc1nc2ccc(N)cc2s1 |
| 6.46 | CCOC(=O)C1CCN(c2cc(C(=O)O)c3cc(N)ccc3n2)CC1 |
| 4.17 | Cc1c(C(=O)NCCCN2CCOCC2)oc2c1-c1[nH]ncc1CC2 |
| 3.47 | COc1ccc(NC(=O)N2CCC3(CC2)Nc2ccccc2-n2cccc23)c(OC)c1 |
| 3.24 | COc1ccc(OC)c(NC(=O)N2CCN(S(=O)(=O)c3ccc4c(ccn4C)c3)CC2)c1 |
| 2.45 | CC(C)Cn1cc(NC(=O)NCCCN2CCCC(C)C2)c2ccccc2c1=O (stereo unspecified) |
| 2.57 | CC(C)CC(=O)Nc1cc(F)c2nc(N3CCOCC3)ccc2c1 |
| 3.55 | O=C(Nc1cc(F)c2nc(N3CCOCC3)ccc2c1)c1ccco1 |
| 4.37 | Cc1cc(NC(=O)N2CCSc3ncccc32)ccc1Br |
| 8.71 | COc1ccc2c(c1)C=C(C(=O)Nc1ccc(OC)cc1OC)CO2 |
| 3.89 | CC(C)Cn1cc(NC(=O)N(Cc2ccco2)CC2CCCO2)c2ccccc2c1=O (stereo unspecified) |
| 2.95 | COC(=O)c1sc(=S)n(-c2ccc3c(c2)OCO3)c1N |
| 3.47 | COc1ccc(Nc2nnc(-n3nc(C)cc3C)c3ccccc23)c(OC)c1 |
| 6.92 | Cc1c(C(=O)NCc2ccco2)oc2c1-c1[nH]ncc1CC2 |
| 6.03 | COC(=O)Cn1cc2c(n1)-c1c(oc(C(=O)N3CCCC3)c1C)CC2 |
| 3.89 | COc1ccc(Nc2nnc(Cc3ccncc3)c3ccccc23)c(OC)c1 |
| 2.04 | COc1ccc2nc(NC(=O)Nc3cn(CC(C)C)c(=O)c4ccccc34)sc2c1 |
| 4.07 | CC(C)Cn1cc(NC(=O)NC(c2cccs2)C(C)C)c2ccccc2c1=O (stereo unspecified) |
| 6.76 | Cn1cc(NC(=O)NCCN2CCOCC2)c2ccccc2c1=O |
| 5.01 | Cc1ccc2c(c1)c1c(n2CC(O)CNCCO)C(=O)CCC1 (stereo unspecified) |
| 3.02 | COc1cc2c(cc1OC)C(C)N(C(=O)Nc1cn(CC(C)C)c(=O)c3ccccc13)CC2 (stereo unspecified) |
| 6.31 | CCC1c2ccc(C)n2CCN1C(=O)Nc1cc(OC)ccc1OC (stereo unspecified) |

| IC50 [µM] | SMILES |
| --- | --- |
| 2.34 | O=C(Nc1cccc2c1CCCC2)N1CCSc2ncccc21 |
| 2.4 | COc1ccc(OC)c(Nc2c(-c3ccc4c(c3)CCCC4)c(=O)c2=O)c1 |
| 8.32 | COc1ccc(Nc2nnc(-n3nc(C)cc3C)c3ccccc23)cc1OC |
| 2.88 | CC(=O)Oc1cc2c(C(=O)N3CCN(c4ccccc4)CC3)c(C)oc2c2ccccc12 |
| 4.47 | Cc1ccc2oc(SCC(=O)Nc3cccc(N4CCCC4=O)c3)nc2n1 |
| 2.57 | O=C(Nc1cc(F)c2nc(N3CCCC3)ccc2c1)C1CCCCC1 |
| 2.69 | COc1cc(OC)c(NC(=O)N2CCN3CCCCC3C2)cc1Cl (stereo unspecified) |
| 4.79 | O=C(Cc1cccs1)Nc1cc(F)c2nc(N3CCOCC3)ccc2c1 |
| 1.55 | CCC(=O)Nc1cc(F)c2nc(N3CCOCC3)ccc2c1 |
| 2.51 | CC(C)Cn1cc(NC(=O)N2CCC(C(N)=O)(N3CCCCC3)CC2)c2ccccc2c1=O |
| 2.75 | CC(C)Cn1cc(NC(=O)NC(C)c2ccccc2)c2ccccc2c1=O (stereo unspecified) |
| 3.31 | CC(C)Cn1cc(NC(=O)Nc2ccccn2)c2ccccc2c1=O |
| 2.95 | COc1cc(OC)c(NC(=O)Nc2cn(CC(C)C)c(=O)c3ccccc23)cc1Cl |
| 9.33 | CCOc1ccc(Nc2ncnc3sc(C(=O)O)c(C)c23)cc1 |
| 1.17 | O=C(Nc1cc(F)c2nc(N3CCOCC3)ccc2c1)C1CC1 |
| 1.55 | O=C(Nc1cc(F)c2nc(N3CCOCC3)ccc2c1)C1CCC1 |
| 3.8 | CC(C)Cn1cc(NC(=O)Nc2ccc(Cl)cn2)c2ccccc2c1=O |
| 4.47 | Nc1ncccc1NC(=O)CCC(=O)O |
